These results are taken from patent publication US20210085742A1, “FRUIT EXTRACT AND USES THEREOF” (THE UNIVERSITY OF NOTTINGHAM, priority 2017, published 2021).

SMILES strings stand for the structures.

Data set [1] relates to Neuroligin 2 5'UTR luciferase reporter. Put plainly: Neuroligin 2 5'UTR firefly luciferase reporter. It is filed as cell-based. The text has this: (§1) Transient transfection conditions and luciferase reporter constructs—Firefly luciferase reporter plasmids containing the 5′ untranslated regions (UTRs) of the genes Neuroligin 1 and Neuroligin 2 were a kind gift from Professor Nahum Sonenberg (McGill) and used as described by Gkogkas et al, 2013. Nature, 17; 371-377.
(§2) Cells were transfected using FuGene 6 (Roche) following the manufacturer's instructions. The activities of firefly and Renilla luciferase in lysates prepared from transfected cells were measured using a commercially available Luciferase reporter assay system (Promega) and light emission was measured over a 10 sec interval using either a TECAN luminometer. For each experiment described, data was obtained from a minimum of at least 3 biological repetitions per treatment.

The test system of the next data set is Lung Carcinoma (A549). Put plainly: anti-proliferative activity, wst-1, lung cancer cell line. It is filed as cell-based, human. Here is the method: Human tissue culture experiments—lung (A549), ovarian (OVCAR-3, SKOV), breast (MDA-MB-231) and prostate (PC-3) cancer cell lines were chosen to provide a broad profile of different cancer cell types and their response to treatment with the natural compound. Cell were seeded as a mono-layer in 96 well flat bottom Nunc tissue culture plates at a density of 10,000 cells per well and supplemented with RPMI 1640 media (Sigma Aldrich) containing 10% foetal calf serum, penicillin and streptomycin. Cells were then treated for 72 hours with a range of concentrations of MGDG either DMSO soluble, media soluble sample or the pure synthetic molecule. Four biological repetitions were tested for each dose. Activity of each treatment was then assessed using wst-1 reagent (Roche) as per the manufacturer's instructions. Data was visualised using a victor plate reader (Perkin Elmer) at a wavelength of 450 nm.

A further data set deals with cancer cells. Put plainly: dose calculation for inhibition of growth of cancer cells. Also noted: species or system human.
The test system of another data set is IL-6. In words: IL-6 inflammatory activity in IL-1α+TNFα treated cells. Particulars: dose of about 10 μg. It is filed as cell-based.
The next data set concerns mice. In words: mouse in vivo toxicity study. Particulars: oral, 2000 mg/kg everyday for 14 days vs water control.
The test system of data set [2] is Neuroligin 1 (5'UTR) luciferase reporter. In words: Neuroligin 1 5'UTR firefly luciferase reporter. It is filed as cell-based.
From the text: as §1, §2
A general note: Reporter assays use an easily measured gene product as a stand-in for the process of interest.

Consider `CC/C=C\C/C=C\C/C=C\CCCCCCCC(=O)OC[C@H](COC1OC(CO)C(O)C(O)C1O)OC(=O)CCCCCCC/C=C\C/C=C\C/C=C\CC` (some centres unmarked) [MGDG, monogalactosyl diacylglycerol], for which the “effect on Neuroligin 2 reporter activity” value in data set [1] is reported as “unaffected”. For the same compound, in the data set with Lung Carcinoma (A549), the “anti-cancer / anti-proliferative activity” value is on record as “anti-proliferative effects”. Moreover, the “inhibition in the growth of cancer cells” value in the data set with cancer cells (daily dose of approximately 11 mgs, human) is on record as 50%; in the data set on cancer cells (dose of approximately 5.5 mgs in a 60kg human) it was 30%. In addition, the “reduction of IL-6 inflammatory activity” value with IL-6 is approximately 80%. The “survival or weight / toxicity” value in the data set on mice was “no difference in survival or weight”. The “effect on Neuroligin 1 reporter” value in data set [2] is given as “can be dampened”. Besides, the “reduction in the levels of Neuroligin 1” value in data set [2] (10 μM dose, luciferase reporter system) is “about 35%”.
